Like-named read-outs stand apart in the source and are kept apart here.
Assays:
[1] = Colour stability of cannabidiol/bisabolol blend with stabilizers (LICO 690, L*a*b, ΔE); type: physicochemical; settings: FIG. 2
Procedure: Colour Stability is an important criterion for customers. Particularly, a product should not change colour during storage. Especially long term stability at room temperature dark stored (RTD) is important, as this simulates storage at a customer. To evaluate effect different antioxidants are tested in common used concentration (see Table 7). Colour is evaluated with LICO 690 (L*a*b-system). Results are compared with ΔE according to the following equation: […]

[2] = Color stabilization in o/w emulsion formulation; type: physicochemical
Procedure: Besides colour stability of pure product for end customer colour stability of the formulation is even more important. Discoloration is related for customer to shelf life, reduced efficacy and microbial contamination. Therefore, blends were tested in simple o/w emulsions adding an amino carboxylate and in the alternative a phytic acid salt. The results are shown in […]

NHDF cells = assay: DCF assay, cellular anti-oxidative capacity (ROS reduction); type: cell-based, human
Procedure: To quantify intracellular radicals in a cell model the dichlorofluorescein (DCF) assay was performed. Therefore, normal dermal human fibroblasts were used as a model for the skin dermis, where ROS would damage cells and the surrounding tissue, which as opposed to keratinocytes accumulate damage over the human life time. […] By intracellular esterases and oxidation, the non-fluorescent H2DCFDA is converted to the highly fluorescent 2′,7′-dichlorofluorescein (DCF). The non-fluorescent fluorescin (2′,7′-dichlorofluorescein diacetate (DCFH-DA) pass the cell membranes. In the cytoplasm, it is cleaved by intracellular esterases and thereby trapped in the cell. The oxidation of DCFH to DCF by intracellularly existing ROS originated from H2O2 added to the cells (reactive oxygen species) results in fluorescence.
Determination of the anti-oxidative capacity is performed in 96-well microplates from Nunc (Wiesbaden, Germany) and with the microplate reader “Spark” from Tecan (Crailsheim, Germany).
Cells are seeded in a black 96 well microplate with transparent bottom and incubated at 37° C. After 24 hours the cells were starved with 0.1% FBS for 24 h. Then the supernatant is aspirated and the test samples are added and incubated for 24 h. As a positive control Trolox is always co-tested. Then the DCF Assay is performed and the fluorescence is measured from bottom of well at EX/EM 485/528 nm. The cellular AOX capacity is expressed in percent as ROS reduction, which can be determined by rule of proportion in combination with the control.

IL8 = IL8 ELISA on HaCaT cells, inflammation triggered with IL1α; type: cell-based, human; settings: for anti-inflammatory activity (IL8 secretion), in words: Example 2; for inhibition at 2.2 µM / inhibition at 4.6 µM / inhibition at 10 µM: Homo sapiens, read-out: IL8 inhibition; for inhibition at 2.2 µM / inhibition at 4.6 µM / inhibition at 10 µM / IL8 inhibition: HaCaT
Description: Inflammation in the skin occurs after UV or chemical exposure, microbial infection or wounding to form a defense against pathogens. However, inflammation in response to UV is associated with degenerative processes in the skin resulting in photoaging, wrinkle and age spot formation. In order to identify the Anti-inflammatory (AI) potential of the test samples the inflammatory mediators interleukin 8 (IL8) were quantified, which initiate and mediate inflammation through recruitment of inflammatory cells from the vasculature. Another object has been identification of the synergistic activity of the test substances. For this purpose, the individual cellular AI potential of bisabolol and synthetic CBD (hereinafter referred to as “SymDStress” obtained from Symrise AG, Holzminden, Germany) with their combination in 100:5, 100:4, 100:3, 100:2 and 100:1 ratios were examined.
Interleukin 8 (IL-8) or CXCL8 is a chemokine produced by macrophages and other cell types such as epithelial cells, airway smooth muscle cells and endothelial cells. In humans, the interleukin-8 protein is encoded by the IL8 gene IL-8 is initially produced as a precursor which undergoes cleavage to create several active IL-8 isoforms. In culture, a 72 amino acid peptide is the major form secreted by all kinds of cells. Interleukin-8 is a key mediator associated with inflammation where it plays a key role in neutrophil recruitment and neutrophil degranulation. As an example, it has been cited as a pro-inflammatory mediator in gingivitis, psoriasis and other diseases. IL8 secretion is increased by various kinds of stress including UV & oxidant stress, which thereby cause the recruitment of inflammatory cells and induces a further increase in oxidant stress mediators, making it a key parameter in localized inflammation.
The ELISA assay uses a solid-phase type of enzyme immunoassay (EIA) to detect the presence of a protein in a liquid sample using antibodies directed against the protein to be measured. Performing an ELISA involves at least one antibody with specificity for that particular protein. The sample with an unknown amount of protein is immobilized on a solid support (usually a polystyrene microtiter plate). After the protein is immobilized, the detection antibody is added, forming a complex with the protein. The detection antibody can be covalently linked to an enzyme or can itself be detected by a secondary antibody that is linked to an enzyme through bio-conjugation. Between each step, the plate is typically washed with a mild detergent solution to remove any proteins or antibodies that are non-specifically bound. After the final wash step, the plate is developed by adding an enzymatic substrate to produce a visible signal, which indicates the quantity the protein to be measured in the sample.
In the present test approach, the IL8 produced and secreted by cells were determined in an Enzyme linked immunosorbance assay (ELISA) from cell supernatants utilizing antibodies detecting the IL8. The assay was performed on HaCaT cells by addition of test substances and their incubation for 6 h (37° C.). Afterwards, inflammation was triggered with IL1α for 2 h or respectively 24 h and IL8 was measured. Therefore, the quantitative sandwich enzyme immunoassay technique was employed. A monoclonal antibody specific for human IL-8 was pre-coated onto a microplate. Standards and samples/supernatants were pipetted into the wells and any IL-8 present was bound by the immobilized antibody. After washing away any unbound substances, an enzyme-linked polyclonal antibody specific for human IL-8 was added to the wells. Following a wash to remove any unbound antibody-enzyme reagent, a substrate solution was added. A color developed in proportion to the amount of IL-8 bound in the initial step. Therefore, the IL8 concentrations for unknown samples are interpolated from the standard curve. […]

[3] = ABTS assay, chemical anti-oxidative capacity
Procedure: The ABTS-Assay is a cell free in vitro test for the evaluation of the chemical AOX capacity. The assay principle bases on the reduction and the involved de-colorization of the green colored cationic radical 2,2′-Azinobis(3-ethylbenzothiazoline 6-sulfonic acid) (ABTS+) by antioxidants. The de-colorization can be measured photometrically at 734 nm. Determination of the anti-oxidative capacity is performed in 96-well microplates from Nunc (Wiesbaden, Germany) and with the microplate reader “Spark” from Tecan (Crailsheim, Germany).
Samples were incubated for 10 min at 30° C. with the 2,2′-Azinobis-(3-ethylbenzothiazoline-6-sulfonate (ABTS) radical cation (Sigma, St. Louis, USA) obtained by chemical conversion of ABTS with potassium persulfate (K2S2O8). As a positive control Trolox was co-tested. The degree of de-colorization was determined photometrically at 734 nm. Results are averaged from 2 independent experiments performed in quadruple technical replicates. The anti-oxidative capacity is expressed in IC50 values (concentration that scavenges 50% of the cationic radical relative to the untreated ABTS solution), which is determined by 4-parameter logistic regression.

Water solubility = type: physicochemical
[4] = Recrystallization in emulsion (Olympus microscope IX-70, polarized light); type: physicochemical
Procedure: To save energy and reduce CO2 there's a trend for cold process emulsions. So it's recommended to use liquid ingredients or well soluble ingredients. […] Recrystallization is evaluated with Olympus microscope IX-70 (60fold) polarized light. As synergist effects in terms of efficacy had been observed, SymDStress is solved in Dragosantol® 100 (Bisabolol). […] The mixture is suitable for cold/cold, hot/cold and cold/cold process emulsions, gels etc.
As synergist effects in terms of efficacy had been observed, SymD Stress is solved in Dragosantol® 100 (Bisabolol). […] Mixture is suitable for cold/cold, hot/cold and cold/cold process emulsions, gels. […] (see FIG. 1). After 6M 5° C. no change in formulation containing Bisabolol. Bisabolol is a very effective solvent for Cannabidiol and helps to prevent recrystallization in target application.

[5] = Table 1, 0.000034 % (0.0011 mM)
[6] = Table 1, 0.000074 % (0.0023 mM)
[7] = Table 1, 0.000159 % (0.0050 mM)
[8] = Table 1, 0.000343 % (0.0110 mM)

Which “discoloration of solution, in words” value [1] does the source give for Tocopherol here?
The value was “can prevent solution from discoloration”.

Which “discoloration of formulation, in words” value ([2]; after 1M storage at RTL, FIG. 3) does the source give for `O=C([O-])CN(CCN(CC(=O)[O-])CC(=O)O)CC(=O)O.[Na+].[Na+]` [Disodium EDTA] here?
The value was “excellent stabilizing agent against discoloration”.

For `CC(C)=CCC[C@](C)(O)[C@@H]1CC=C(C)CC1` [α-bisabolol, alpha-bisabolol], which ROS reduction (NHDF cells; Table 6, 0.00002847 % (0.00100 mMol/l)) is on record?
The ROS reduction was 10.61%.

And the “anti-inflammatory activity (IL8 secretion), in words” value (IL8)?
Its value is “opposite effect”.

And the inhibition at 2.2 µM (IL8; Table 2, 0.0022 mM)?
The inhibition at 2.2 µM was -14%.

And the inhibition at 4.6 µM (IL8; Table 2, 0.0046 mM)?
Its inhibition at 4.6 µM is -3%.

And the inhibition at 10 µM (IL8; Table 2, 0.01000 mM)?
The inhibition at 10 µM was 1%.

And the IL8 inhibition (IL8; Table 3, 0.002847 % (0.100 mM))?
Its IL8 inhibition is 39%.

With `O=C([O-])CC[C@@H](C(=O)[O-])N(CC(=O)[O-])CC(=O)[O-].[Na+].[Na+].[Na+].[Na+]` [Tetrasodium Glutamate Diacetate] as the compound, how does the “discoloration in the end-formulation, in words” value ([2]; Table 9, FIG. 4) read?
The value was “reduced discoloration”.

With `C=C(C)[C@@H]1CCC(C)=C[C@H]1c1c(O)cc(CCCCC)cc1O` [CBD (synthetic), cannabidiol] as the compound, how does the “AOX capacity compared to the technical positive control, in words” value [3] read?
Its value is “higher AOX capacity”.

What about the Anti-oxidative capacity ([3]; 0.0000160 %) of the same compound?
Its Anti-oxidative capacity is 23%.

What about the Anti-oxidative capacity ([3]; 0.0000310 %) of the same compound?
The Anti-oxidative capacity was 28%.

What about the Anti-oxidative capacity ([3]; 0.000160 %) of the same compound?
The Anti-oxidative capacity was 84%.

What about the Anti-oxidative capacity ([3]; 0.000310 %) of the same compound?
The Anti-oxidative capacity was 96%.

And the Anti-oxidative capacity ([3]; 0.000470 %)?
The Anti-oxidative capacity was 100%.

What about the Anti-oxidative capacity ([3]; 0.000630 %) of the same compound?
The Anti-oxidative capacity was 100%.

And the ROS reduction (NHDF cells; Table 5, 0.0000031 % (0.0001 mMol/l))?
The ROS reduction was 24.01%.

What about the ROS reduction (NHDF cells; Table 5, 0.0000063 % (0.0002 mMol/l)) of the same compound?
Its ROS reduction is 35.43%.

What about the ROS reduction (NHDF cells; Table 5, 0.0000126 % (0.0004 mMol/l)) of the same compound?
The ROS reduction was 34.74%.

What about the ROS reduction (NHDF cells; Table 5, 0.0000157 % (0.0005 mMol/l)) of the same compound?
The ROS reduction was 34.55%.

What about the ROS reduction (NHDF cells; Table 5, 0.0000397 % (0.0013 mMol/l)) of the same compound?
Its ROS reduction is 40.61%.

And the ROS reduction (NHDF cells; Table 5, 0.0000496 % (0.0016 mMol/l))?
The ROS reduction was 48.96%.

And the ROS reduction (NHDF cells; Table 5, 0.000094 % (0.0003 mMol/l))?
The ROS reduction was 40.4%.

What about the ROS reduction (NHDF cells; Table 6, 0.000001256 % (0.00004 mMol/l)) of the same compound?
The ROS reduction was 7.20%.

And the ROS reduction (NHDF cells; Table 6, 0.000001570 % (0.00005 mMol/l))?
Its ROS reduction is −5.44%.

And the “reducing intracellular ROS expression” value (NHDF cells; summary of Table 5)?
Its value is “up to 50%”.

And the “water solubility, in words” value (Water solubility)?
Its value is “low water solubility”.

And the “anti-inflammatory activity (IL8 secretion), in words” value (IL8)?
The value was “significant anti-inflammatory activity”.

What about the inhibition at 2.2 µM (IL8) of the same compound?
Its inhibition at 2.2 µM is 6%.

What about the inhibition at 4.6 µM (IL8) of the same compound?
Its inhibition at 4.6 µM is 18%.

What about the inhibition at 10 µM (IL8) of the same compound?
Its inhibition at 10 µM is 31%.

What about the IL8 inhibition (IL8; [5]) of the same compound?
The IL8 inhibition was −0.84%.

And the IL8 inhibition (IL8; [6])?
The IL8 inhibition was 13.91%.

What about the IL8 inhibition (IL8; [7]) of the same compound?
Its IL8 inhibition is 25.98%.

And the IL8 inhibition (IL8; [8])?
The IL8 inhibition was 34.25%.

And the IL8 inhibition (IL8; Table 3, 0.000150 % (0.005 mM))?
Its IL8 inhibition is 21%.

What about the recrystallization in formulation ([4]; 0.025% CBD, after 1M 5° C.) of the same compound?
The recrystallization in formulation was “recrystallization can be observed”.

What about the recrystallization in emulsion ([4]; after 1M at Room temperature dark (RTD) storage) of the same compound?
Its recrystallization in emulsion is “recrystallization in emulsion is observed”.

With `C=C(C)[C@@H]1CCC(C)=C[C@H]1c1c(O)cc(CCCCC)cc1O` [CBD (natural), cannabidiol, reference compound] as the compound, how does the IL8 inhibition (IL8; [5]) read?
The IL8 inhibition was −0.85%.

And the IL8 inhibition (IL8; [6])?
Its IL8 inhibition is 4.84%.

What about the IL8 inhibition (IL8; [7]) of the same compound?
Its IL8 inhibition is 11.42%.

And the IL8 inhibition (IL8; [8])?
The IL8 inhibition was 31.90%.
